How the values were obtained:
hair-matrix cells = experiment: Proliferation effect of cultured hair-matrix cells; assay type: cell-based, Mouse; conditions: cultured 6 days; for Relative value of the number of cells: control group = 100%
Procedure: Mouse hair tissues were collected and hair-matrix cells were cultured by the method disclosed by Tanigaki, et al., using serum free media (Tanigaki, et al., (1990), Arch. Dermatol. Res. 282: 402-407).
On the first day after the start of culturing hair-matrix cells, the culture media were changed to those containing the above-mentioned chromene compounds.
After culturing the hair-matrix cells for 6 days, they were separated from the culture dishes and the number of cells was counted. The effect of each chromene compound is shown by a relative ratio with the number of cells in the control group (the group cultured in a serum-free medium) being defined as 100%.

[1] = reported in Annual Report of Toyama Prefectural Institute for Pharmaceutical Research, 1998; cited from earlier work

| Compound | Proliferation rate (hair-matrix cells; 1 μg/ml in culture medium) | Relative value of the number of cells (hair-matrix cells; 1 μg/ml in culture medium) | Proliferation rate (hair-matrix cells; 10 μg/ml in culture medium) | Relative value of the number of cells (hair-matrix cells; 10 μg/ml in culture medium) | acute toxicity [1] |
| --- | --- | --- | --- | --- | --- |
| COc1cc(C(C)=O)cc2c1OC(C)(C)C=C2 [Acetovanillochromene, 6-acetyl-8-methoxy-2,2-dimethylchromene] | 33 % increase over control | 133 % control | 35 % increase over control | 135 % control |  |
| COc1c(C(C)=O)cc2c(c1OC)OC(C)(C)C=C2 [Methylripariochromene A, 6-acetyl-7,8-dimethoxy-2,2-dimethylchromene] | 12 % increase over control | 112 % control | 53 % increase over control | 153 % control | no toxicity |
| COc1c(C(C)O)cc2c(c1OC)OC(C)(C)C=C2 (stereo not shown) [Orthochromene A, 6-(1-hydroxyethyl)-7,8-dimethoxy-2,2-dimethylchromene] | 18 % increase over control | 118 % control | 44 % increase over control | 144 % control |  |

Reference: patent publication US20070254946A1, “Hair Growth Stimulants” (priority 2003, published 2007)
